One assay concerns SPDEF. In words: Western blot of SPDEF in IL-13-treated SAEC monolayer. Type of assay: cell-based, human. As to conditions: airway epithelial monolayer, IL-13 24 and 48 h, immunoblotting. The protocol:
FIGS. 6A-6B. AR inhibition prevents IL-13-induced expression of Mucin and transcription factor SPDEF in airway epithelial cell monolayer. (A) The airway epithelial cell monolayer at ALI was serum starved without or with fidarestat and incubated with IL-13 for 18 h. Total RNA was isolated and subsequently RT-PCR was performed to assess the expression of Muc5AC and SPDEF. The bar diagrams show densitometric analysis of the corresponding blots (n=4). *p<0.001 vs Control; **p<0.001 vs IL-13; (B) The monolayer of ciliated airway cells at ALI was treated with AR inhibitor for 24 h and subsequently incubated with IL-13 for 24 or 48 h. At the end of incubation, cell lysate was prepared and subjected to western blotting using antibodies against Muc5AC, Muc5B, and SPDEF. The membranes were stripped and re-probed with antibodies against GAPDH to show the equal loading of protein. A representative blot is shown (n=4). *p<0.0001 vs Control; **p<0.001 vs IL-13. […] Protein levels were determined using Bradford reagent (Biorad, Hercules, Calif.). […] The blots were then washed, exposed to HRP-conjugated secondary antibodies (1:5,000 dilution) for 1 h, and the antigen-antibody complex was detected by enhanced chemiluminescence (Amersham Pharmacia Biotech, Piscataway, N.J., USA). […]

The test system of the next assay is IL-13. The assay is described as follows: RWE-induced expression of IL-13 in mouse lung (quantitative RT-PCR). It counts as in vivo. Particulars: RWE-sensitized and challenged mice, fidarestat 7 mg/kg body wt/day in drinking water, lungs 16 h after challenge. How it is done: FIG. 8. AR inhibition prevents RWE-induced expression of IL-13 in mouse lung. The mice were sensitized and challenged with PBS or RWE, without or with AR inhibitor and 16 h later lungs were harvested and total RNA was isolated (n=4). One microgram of total RNA from each sample was transcribed into first-strand cDNA and quantitative RT-PCR was conducted using IL-13 specific forward and reverse primers. The levels of RNA for the target sequences were determined by melting curve analysis. The values presented here are fold-change over the control. (**p<0.001). RWE, ragweed pollen extract; ARI, aldose reductase inhibitor. […]
The mice lungs were harvested 16 h after RWE-challenge and total RNA was isolated. From each sample, one microgram of total RNA was transcribed into first-strand cDNA and quantitative RT-PCR was conducted using IL-13 specific forward and reverse primers 5′[…] […] Data were collected and analyzed by ABI 7000 System equipment and software (Applied Biosystems, Foster City, Calif.). […] Values of expression in fold increase (ratio of control) were calculated using the formula for relative expression by the method of Delta Delta CT (ΔΔCT): F=2^−^ΔΔ^C, F=fold change (ratio of control), −ΔΔCT=(CT Target−CTHKG)^Timex−(CT Target-CT HKG)^Time 0. […]

On to `NC(=O)[C@@H]1C[C@]2(NC(=O)NC2=O)c2cc(F)ccc2O1` [fidarestat, (2S,4S)-2-aminoformyl-6-fluoro-spiro[chroman-4,4′-imidazolidine]-2′,5′-dione], for which the “prevention of IL-13-induced increase in SPDEF protein” value in the assay on SPDEF is approximately 50%. Also, the “RWE-induced increase of IL-13 expression in lung” value with IL-13 is recorded as “prevented this increase”.

(Values after US8785483B2, “Methods for treating COPD” (The Board of Regents of the University of Texas System, priority 2010, dated 2014).)
